According to ChEMBL document CHEMBL1150824, “New xenicane diterpenoids from the gorgonian Acalycigorgia inermis” (2001):
Converted amounts (≈) assume the structure as drawn. The source made the active and inactive calls. The rule behind the calls is not given here.

What was measured:
[1] = Inhibition of FPTase at 10 ug/mL
HUVEC [2] = assay: Antiangiogenic activity in HUVEC assessed as inhibition of bFGF-induced tube formation at 10 ug/mL; format: functional, cell-based; details: Homo sapiens
[3] = Inhibition of FPTase up to 20 ug/mL
HUVEC [4] = assay: Antiangiogenic activity in HUVEC assessed as inhibition of bFGF-induced tube formation up to 20 ug/mL; format: functional, cell-based; details: Homo sapiens
K562 = assay: Cytotoxicity against human K562 cells; format: functional; details: read-out: LC50 (the source's name)

With C=C1CC[C@@H]2O[C@@]2(C)CC[C@@H]2[C@H](CCC=C(C)C)C(=O)OC[C@@H]12 the Activity [1] was “inactive”, the Activity (HUVEC [2]) was “inactive” and the Activity [3] was “inactive”. The Activity (HUVEC [4]) was “inactive”.
With C=C=CCC(OC(C)=O)C1=CO[C@H](OC(C)=O)[C@H]2C(=C)CC[C@@H]3O[C@@]3(C)CC[C@H]12 (stereo partly specified) the inhibition [1] was 82% and the Activity (HUVEC [2]) was “Active”.
In the case of C=C1CC/C=C(\C)CC[C@@H]2/C(=C\C=C\C(C)(C)O)C(=O)OC[C@@H]12 [9-DEOXYXENIOLIDE A], the CC50 (K562) is reported as 0.04 µg/mL (≈ 0.126 µM), the Activity [1] is reported as “inactive” and the Activity (HUVEC [2]) is reported as “inactive”. For the same molecule, the Activity [3] was “inactive” and the Activity (HUVEC [4]) was “inactive”.
With C=C1CC[C@@H]2O[C@@]2(C)CC[C@@H]2[C@H](CC/C=C(\C)C(=O)OC)C(=O)OC[C@@H]12 [ACALYCIXENIOLIDE H] the CC50 (K562) was 3.9 µg/mL (≈ 10.8 µM), the Activity [1] was “inactive” and the Activity (HUVEC [2]) was “inactive”. The Activity [3] was “inactive” and the Activity (HUVEC [4]) was “inactive”.
For C=C1CC/C=C(\C)CC[C@@H]2[C@H](CC/C=C(\C)CO)C(=O)OC[C@@H]12 [ACALYCIXENIOLIDE I], the CC50 (K562) was 1.2 µg/mL (≈ 3.77 µM), the Activity [1] was “inactive” and the Activity (HUVEC [2]) was “inactive”. For the same molecule, the Activity [3] was “inactive” and the Activity (HUVEC [4]) was “inactive”.
For C=C1CC/C=C(\C)CC[C@@H]2[C@H](C/C=C/C(C)(C)O)C(=O)OC[C@@H]12 [ACALYCIXENIOLIDE J], the CC50 (K562) was 2 µg/mL (≈ 6.28 µM), the Activity [1] was “inactive” and the Activity (HUVEC [2]) was “inactive”. The Activity [3] was “inactive” and the Activity (HUVEC [4]) was “inactive”.
In the case of C=C1CC/C=C(\C)CC[C@@H]2[C@H](CC/C=C\CO)C(=O)OC[C@@H]12 [ACALYCIXENIOLIDE K], the CC50 (K562) is reported as 1.8 µg/mL (≈ 5.91 µM), the Activity [1] is reported as “inactive” and the Activity (HUVEC [2]) is reported as “inactive”. For the same molecule, the Activity [3] was “inactive” and the Activity (HUVEC [4]) was “inactive”.
With C=C1CC/C=C(\C)CC[C@@H]2[C@H](CC/C=C/CO)C(=O)OC[C@@H]12 [ACALYCIXENIOLIDE L] the CC50 (K562) was 1.5 µg/mL (≈ 4.93 µM), the Activity [1] was “inactive” and the Activity (HUVEC [2]) was “inactive”. For the same molecule, the Activity [3] was “inactive” and the Activity (HUVEC [4]) was “inactive”.
